# Test results: patent publication US10450566B2, “Compounds for inducing anti-tumor immunity and methods thereof” (Cornell University, priority 2013, dated 2019)
# Legend:
# Format in all cases: cell-based, mouse
# 4-HNE-protein adducts = 4-HNE-protein adducts in DCs by competitive ELISA
# Experimental: (§1) Murine recombinant cytokines were purchased from Peprotech. Cobalt chloride, Tunicamycin (used at 1 μg/ml), Tiron (used at 100-500 μM) and Vitamin E (α-tocopherol, used at 50-100 μM) were from Sigma. DCFDA staining was utilized for intracellular ROS detection (Abcam). Purified 4-HNE was obtained from Cayman Chemical and 4-HNE-protein adducts in ascites samples and DCs were detected and quantified through competitive ELISA (Cell Biolabs). TOFA (Cayman Chemical) was used at a final concentration of 5 μg/ml to inhibit fatty acid synthesis in DCs by blocking the synthesis of malonyl-CoA by acetyl-CoA carboxylase. The IRE-1α-specific inhibitor 4μ8c (Millipore) was used at a final concentration of 10 μM.
# (§2) Whether these reactive aldehyde byproducts could trigger ER stress in DCs was investigated. […] Accordingly, intracellular 4-HNE-protein adducts were also readily found in tDCs isolated from these malignant samples (FIG. 4D). 4-HNE generation in mouse tDCs exposed to cell-free ovarian cancer ascites decreased upon exposure to the common antioxidant Vitamin E (FIG. 4E).
# XBP1 = XBP1 splicing and ER stress/lipid gene expression in naïve sDCs by RT-PCR/RT-qPCR
# Experimental: as §1
# Total RNA from human samples was isolated using the miRVANA miRNA isolation Kit (Life Technologies). RNA from mouse samples was isolated using the Qiazol reagent (Qiagen). […] of RNA were used to generate cDNA using the High Capacity cDNA Reverse Transcription Kit (Life Technologies). Human and mouse Xbp1 splicing assays were performed as described (Lee et al., 2003a; Martinon et al., 2010) using conventional Reverse Transcription PCR (RT-PCR) and primers shown in Table 1. Gene expression analysis was done via Reverse Transcription quantitative PCR (RT-qPCR) using a Stratagene Mx3005 instrument and SYBR green I (Life Technologies). […] All primers used in this study are described in Table 1.
# One goal of the present invention was to investigate how the tumor microenvironment influences the functional status of XBP1 in DCs. In particular, one aim of the present invention was to investigate whether cancer-derived factors could participate in triggering ER stress and XBP1 activation in tumor-infiltrating DCs, and determine whether this process could impact the detrimental function of these innate immune cells in hosts with ovarian cancer. […] In particular, naïve sDCs were isolated and stimulated for 24h with cytokines (e.g., IL-10, TGF-β, VEGFα, KC, CCL3, IL-6) at concentrations ranging from 5 ng/ml to 25 ng/ml (FIG. 3A-D). Cells were also exposed for 24 hours to increasing concentrations of cobalt chloride (CoCl2), a chemical inducer of the HIF1α pathway that mimics low oxygen conditions (Piret et al. 2002) (FIG. 3E-F). Splicing and upregulation of XBP1 was determined by RT-qPCR analysis (FIG. 3).
# as §2
# tDCs [1] = assay: Intracellular lipid content of tDCs by BODIPY 493/503 staining and flow cytometry; settings: tDCs with 25% cell-free ovarian cancer ascites, 24h, Bodipy493/503
# Experimental: FIG. 9G: graphically depicts the intracellular lipid content of tDCs incubated in vitro with 25% cell-free ovarian cancer ascites supernatants in the presence of the indicated inhibitors. Intracellular lipid content was assessed 24h later via Bodipy493/503 staining. Data are representative of 3 independent experiments with similar results. #P<0.05 compared with control tDC incubated in the absence of cell-free ascites supernatants. *P<0.05 compared with ascites-exposed tDC but left untreated.
# as §1
# Intracellular lipid content in DCs was evaluated via flow cytometry using 4,4-Difluoro-1,3,5,7,8-Pentamethyl-4-Bora-3a,4a-Diaza-s-Indacene (BODIPY 493/503, Life Technologies) as previously reported (Herber et al., 2010). […] Cells were washed twice with 1×PBS and stained with 500 μl of BODIPY 493/503 at […] in PBS for 15 min at room temperature in the dark. Cells were washed twice and analyzed by flow cytometry. BODIPY 493/503 staining was detected in the PE channel. For intracellular cytokine staining, 5×10^6 cells isolated from malignant peritoneal wash samples of ovarian cancer-bearing mice were stimulated for 6h in 10% FBS complete RPMI containing PMA (Calbiochem), lonomycin (Calbiochem) and Brefeldin A (BioLegend). […] Flow cytometry data was analyzed using FlowJo version 9 or 10.
# tDCs [2] = assay: In vitro antigen presentation: OVA-pulsed tDCs cocultured with CFSE-labeled OT-1 T cells; settings: wild type tDC pre-treated, full-length OVA, cell-free malignant ascites
# Experimental: For in vitro antigen presentation experiments, tDC or sDC were sorted from the peritoneal cavity or spleen of XBP1^f/f or XBP1^f/f CD11c-Cre female mice bearing ID8-Defb29/Vegf-A ovarian tumors for 4 weeks (FIG. 1). tDCs were pulsed for overnight 50 μg/ml of full-length endotoxin-free OVA (SIGMA, Grade VII) in the presence or absence of Vitamin E (50 μg/ml) in media containing 25% cell-free ovarian cancer ascites supernatants. DCs were washed twice and cocultured for 3 days with CFSE-labeled CD8^+ T cells immunopurified from OT-1 mice at a 1:10 (DC to T cell) ratio, as previously described (Scarlett et al., 2009).
# [3] = naïve sDCs exposed for 3h to increasing amounts
structure (smiles),measurement,setting,value
"CCCCCC(O)/C=C/C=O (stereo not drawn) [4-HNE, 4-hydroxy-trans-2-nonenal]",formation of intracellular 4-HNE-protein adducts,"4-HNE-protein adducts; naïve sDCs, increasing concentrations of purified 4-HNE",efficiently formed covalent adducts with intracellular proteins
same,BiP and CHOP gene expression (general ER stress response markers),XBP1; [3],robust induction
same,ERdj4 gene expression,XBP1; [3],upregulation
same,splicing of the Xbp1 mRNA,XBP1; [3],rapidly triggered splicing of the Xbp1 mRNA
same,"expression of lipid biosynthetic genes Agpat6, Fasn and Lpar1",XBP1; naïve sDCs stimulated for 3h,rapidly upregulated
Cc1cc(=O)oc2c(C=O)c(O)ccc12 [4μ8c],intracellular lipid content of tDCs,tDCs [1],restricted the observed ascites-induced lipid biogenesis
CCCCCCCCCCCCCCOc1ccc(C(=O)O)o1 [TOFA],intracellular lipid content of tDCs,tDCs [1],prevented
"Cc1c(C)c2c(c(C)c1O)CC[C@@](C)(CCC[C@H](C)CCC[C@H](C)CCCC(C)C)O2 [Vitamin E, α-tocopherol]",4-HNE generation (intracellular 4-HNE-protein adducts) in tDCs,4-HNE-protein adducts; mouse tDCs exposed to cell-free ovarian cancer ascites,decreased
same,antigen-presenting capacity (expansion of OT-1 T cells),tDCs [2],phenocopied the enhanced antigen-presenting capacity exhibited by XBP1-deficient tDCs
same,intracellular lipid content of tDCs,tDCs [1],reduced intracellular lipid content
